Source: patent US20240342111A1, “ISOMER-SPECIFIC NEUROPROTECTIVE EFFECT OF NATURAL RESERVATROL” (priority 2021, published 2024)
Blank lines part the entries; values can stand above or below the molecule they belong to.

Experiments:
[1] = Spectral analysis (absorption spectrum) of cis- and trans-RSV conformation in solution; format: physicochemical; settings: for peak absorption: lower concentrations (≤10 μM), range 250-400 nm
Procedure: Nature 519, 370-373, doi:10.1038/nature14028 (2015). […] Mol Nutr Food Res 63, e1800715, doi:10.1002/mnfr.201800715 (2019). […] Commercially available cis- and trans-RSV were dissolved in ethanol to generate the stock solutions. […] The dilutions were done in the dark and samples were protected from light. […] Low dose trans-RSV evokes a paradoxical shift in equilibrium towards the cis conformation in solution.
Each stock was diluted 1000× in DMSO to prepare different stocks to obtain the final working solutions and micromolar concentrations to obtain the absorption spectrum. The control solution was prepared using ethanol and DMSO (0.1% ethanol). Absorption was measured using Spectramax 300R at room temperature. Stock solutions were stored at −20° C., and the working solutions were prepared fresh and protected from light during the preparation.

8-oxo-2′-dG = experiment: Quantification of 8-oxo-2′-dG (oxidation level of neuronal DNA); format: cell-based, rat; settings: 50 μM, 16 hours
Excerpt: Although Aβ exacerbates neuronal DNA damage through an unknown mechanism, see Suberbielle, E. et al. Physiologic brain activity causes DNA double-strand breaks in neurons, with exacerbation by amyloid-beta. […] Elife 7, doi:ARTN e34334 10.7554/eLife.34334 (2018), and (see FIG. 7 at (b)). […] Mol Cell 65, 932-940 e936, doi:10.1016/j.molcel.2017.01.003 (2017), in a time-dependent manner (see FIG. 7 at (c)). […] Representative immunoblots and quantification for the auto-PARylation level of PARP1 after the siRNA knockdown of TyrRS.

GSK3β = experiment: Immunoblot for inhibitory GSK3β phosphorylation; format: cell-based, rat; settings: 16 hours
TyrRS = molecular target: T1, TyrRS (Rattus norvegicus, UniProt Q4KM49); experiment: Immunostaining of neuronal TyrRS, RSV alone or in combination with Aβ; format: cell-based; settings: 16 hours; for TyrRS protein levels: alone, 50μ; for Aβ-mediated downregulation of TyrRS: co-treatment 50μ with Aβ 50 nM
T1 construct: Primary cortical neuron cultures were obtained from E18 Sprague Dawley rats' cortices; endogenous in cells; host or cells: rat primary cortical neurons (E18 Sprague Dawley)
T1 sequence (Q4KM49 1-528): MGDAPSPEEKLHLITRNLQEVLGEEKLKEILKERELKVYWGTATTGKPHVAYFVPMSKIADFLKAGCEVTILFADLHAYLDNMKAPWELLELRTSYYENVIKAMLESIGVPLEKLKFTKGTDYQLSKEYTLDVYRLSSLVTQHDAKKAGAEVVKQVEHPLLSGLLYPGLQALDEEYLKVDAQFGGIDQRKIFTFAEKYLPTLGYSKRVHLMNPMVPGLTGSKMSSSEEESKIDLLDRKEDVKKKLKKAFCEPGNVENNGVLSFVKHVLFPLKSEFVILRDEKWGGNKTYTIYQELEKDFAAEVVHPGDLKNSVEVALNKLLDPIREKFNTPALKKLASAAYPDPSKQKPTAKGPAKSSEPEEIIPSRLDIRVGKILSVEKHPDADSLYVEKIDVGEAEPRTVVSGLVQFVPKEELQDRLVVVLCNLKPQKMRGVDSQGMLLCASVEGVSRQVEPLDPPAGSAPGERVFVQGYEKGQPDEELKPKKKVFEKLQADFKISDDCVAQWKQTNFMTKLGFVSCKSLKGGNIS

RAD51 = experiment: Immunoblot for RAD51 levels; format: cell-based, rat; settings: 4 hours
γ-H2AX foci = experiment: Immunostaining of DNA damage marker pSer139-H2AX (γ-H2AX) foci; format: cell-based, rat; settings: 24 hours; for Aβ-mediated accumulation of γ-H2AX foci: 50 μM in combination with Aβ 50 nM; for γ-H2AX foci: alone, 50 μM
tau = experiment: Immunostaining of phospho-tau (pSer404-tau); format: cell-based, rat; settings: 25 μM, 16 hours
PARP1 = experiment: Immunoblot for auto-PARylation of PARP1; format: cell-based, rat; settings: 15 minutes

specific absorption peak [1]: 295 nm | peak absorption [1]: 295 nm | TyrRS protein levels (TyrRS): upregulation of the TyrRS protein levels
Structure (SMILES): Oc1ccc(/C=C\c2cc(O)cc(O)c2)cc1 [cis-RSV, cis-resveratrol]
conformation in solution ([1]; cis-RSV, 5-50 μM): retains its conformation across the different doses | levels of 8-oxo-dG (8-oxo-2′-dG): downregulated both the protein levels of OGG1 and the levels of 8-oxo-dG | GSK3β activity via inhibitory phosphorylation (pSer9) (GSK3β): inhibited GSK3β through the upregulation of the inhibitory phosphorylation (pSer9) | Aβ-mediated downregulation of TyrRS (TyrRS): protected against Aβ-mediated downregulation of TyrRS | RAD51 levels (RAD51; cis-RSV 5-50 μM): upregulated it | Aβ-mediated accumulation of γ-H2AX foci (γ-H2AX foci): rescued A β-mediated accumulation of γ-H2AX foci | γ-H2AX foci (γ-H2AX foci): downregulated the accumulation of γ-H2AX foci | phosphorylation level of tau (p-tau, pSer404) (tau): significantly downregulated the phosphorylation level of tau (p-tau) | auto-PARylation of PARP1 (PARP1; cis-RSV): stimulated the auto-PARylation of PARP1

Structure (SMILES): Oc1ccc(/C=C/c2cc(O)cc(O)c2)cc1 [trans-RSV, trans-resveratrol]
specific absorption peak [1]: 330 nm | conformation in solution ([1]; concentrations ≤10 μM, in DMSO, protected from light): exists majorly in cis-RSV conformation | conformation in solution ([1]; high dose (≥25 μM)): retains its trans conformation | peak absorption [1]: 295 nm | levels of 8-oxo-dG (8-oxo-2′-dG): upregulated the levels of 8-oxo-2′-deoxyguanosine (8-oxo-dG) | GSK3β activity via inhibitory phosphorylation (pSer9) (GSK3β): activated GSK3β by downregulating the levels of pSer9 | TyrRS protein levels (TyrRS): downregulation | Aβ-mediated downregulation of TyrRS (TyrRS): exacerbated the downregulation of TyrRS | RAD51 levels (RAD51; low dose 5 μM): upregulated it | RAD51 levels (RAD51; ≥10 μM): downregulated RAD51 in a dose-dependent manner | Aβ-mediated accumulation of γ-H2AX foci (γ-H2AX foci): exacerbated the accumulation of γ-H2AX foci | γ-H2AX foci (γ-H2AX foci): caused the accumulation of γ-H2AX foci | phosphorylation level of tau (p-tau, pSer404) (tau): significantly upregulated the level of p-tau | auto-PARylation of PARP1 (PARP1; higher dose ≥25 μM): downregulated the auto-PARylation of PARP1 | auto-PARylation of PARP1 (PARP1; low dose 5 μM): stimulated the auto-PARylation of PARP1
